Measurements: US20150272939A1, “Identification of Small Molecule Inhibitors of Jumonji AT-Rich Interactive Domain 1A (JARID1A) and 1B (JARID1B) Histone Demethylase” (Yale University, priority 2012, published 2015)
Where a name gives a salt, the structure may show the parent alone. Read-outs that look alike come from different tables or passages of the source.

Tests used:
JARID1B = target: T1, JARID1B (Homo sapiens, UniProt Q9UGL1); test: FLAG-JARID1B histone demethylase assay with AlphaScreen detection (HTS and dose response); format: biochemical; conditions: for Assay − Artifact Signal (percent): assay signal minus artifact signal; for inhibition at 20 µM: high-throughput screen, compound 20 μM, read-out: Inhibitory effect (percent); for Assay Signal (percent) / Validation result of HTS active: effect of the compound in the JARID1B AlphaScreen demethylase assay: validation of HTS actives; for Assay Signal (percent): effect of compound in JARID1B AlphaScreen assay; for Validation result of HTS active: effect of the compound in the JARID1B AlphaScreen demethylase assay: total signal before subtraction of artifact signal;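 as to Assay Signal (percent): compound tested at 20 µM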;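 as to Assay − Artifact Signal (percent): compound tested at 20 µM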;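 as to all read-outs here: FLAG-tagged JARID1B at 4 nM acting on a biotinylated H3K4me3 peptide, demethylation read by AlphaScreen luminescence, with hits checked against bio-H3K4me2 without enzyme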
T1 construct: The FLAG tagged full length JARID1B enzyme was expressed in Sf21 insect cells using FLAG-JARID1B baculoviruses; FLAG (N); made in house; host or cells: Sf21 insect cells (baculovirus)
T1 sequence (Q9UGL1 whole entry): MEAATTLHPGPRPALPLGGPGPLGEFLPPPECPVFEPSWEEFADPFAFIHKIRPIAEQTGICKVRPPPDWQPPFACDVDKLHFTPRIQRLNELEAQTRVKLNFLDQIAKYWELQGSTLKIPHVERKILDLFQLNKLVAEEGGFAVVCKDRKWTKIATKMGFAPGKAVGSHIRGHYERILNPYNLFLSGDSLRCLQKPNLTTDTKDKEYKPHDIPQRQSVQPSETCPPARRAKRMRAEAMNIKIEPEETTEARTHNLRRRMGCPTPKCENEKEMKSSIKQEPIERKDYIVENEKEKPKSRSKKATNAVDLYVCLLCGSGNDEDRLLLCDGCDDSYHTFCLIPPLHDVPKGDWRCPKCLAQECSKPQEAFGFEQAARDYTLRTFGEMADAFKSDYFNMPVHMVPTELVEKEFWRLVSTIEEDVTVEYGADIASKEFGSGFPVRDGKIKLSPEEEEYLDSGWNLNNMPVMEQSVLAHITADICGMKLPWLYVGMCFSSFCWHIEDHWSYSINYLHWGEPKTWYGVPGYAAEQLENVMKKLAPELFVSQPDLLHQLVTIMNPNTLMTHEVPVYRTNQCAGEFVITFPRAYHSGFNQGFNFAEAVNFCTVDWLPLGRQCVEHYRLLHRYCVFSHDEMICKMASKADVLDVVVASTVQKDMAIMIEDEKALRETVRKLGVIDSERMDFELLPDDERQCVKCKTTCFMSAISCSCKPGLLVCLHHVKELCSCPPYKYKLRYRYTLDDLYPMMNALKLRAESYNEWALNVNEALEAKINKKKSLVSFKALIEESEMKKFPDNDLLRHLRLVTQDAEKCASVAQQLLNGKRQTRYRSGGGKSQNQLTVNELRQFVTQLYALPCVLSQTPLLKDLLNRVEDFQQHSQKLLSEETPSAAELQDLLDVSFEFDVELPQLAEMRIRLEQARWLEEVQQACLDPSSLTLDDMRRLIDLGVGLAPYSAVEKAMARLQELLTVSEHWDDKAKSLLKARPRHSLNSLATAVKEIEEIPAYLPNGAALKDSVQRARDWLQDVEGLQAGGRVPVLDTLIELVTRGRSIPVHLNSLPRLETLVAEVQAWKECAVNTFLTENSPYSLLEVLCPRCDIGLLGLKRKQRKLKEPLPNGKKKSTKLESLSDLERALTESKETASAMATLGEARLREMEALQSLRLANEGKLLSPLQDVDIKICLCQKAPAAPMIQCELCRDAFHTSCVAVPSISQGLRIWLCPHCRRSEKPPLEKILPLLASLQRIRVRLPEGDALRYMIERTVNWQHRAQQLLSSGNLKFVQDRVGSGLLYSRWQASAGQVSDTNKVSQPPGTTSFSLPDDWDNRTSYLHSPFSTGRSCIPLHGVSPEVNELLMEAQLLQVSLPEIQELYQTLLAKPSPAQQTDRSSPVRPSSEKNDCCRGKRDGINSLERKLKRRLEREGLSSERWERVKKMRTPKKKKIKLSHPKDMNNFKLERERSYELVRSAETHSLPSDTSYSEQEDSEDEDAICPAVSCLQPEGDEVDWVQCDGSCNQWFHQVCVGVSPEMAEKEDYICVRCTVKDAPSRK

[1] = AlphaScreen counterscreen against bio-H3K4me2 peptide in the absence of enzyme (artifact signal); conditions: for Artifact Signal (percent): effect of the compound when incubated with bio-H3K4me2 peptide (counterscreen, no enzyme); for Artifact signal: effect of the compound when it is incubated with bio-H3K4me2 peptide: counterscreen, no enzyme;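 as to all read-outs here: counterscreen run without enzyme against bio-H3K4me2 peptide to remove false positive hits from the JARID1 demethylase AlphaScreen screen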
[2] = standard demethylase conditions (10 μM α-KG, 50 μM Fe (II))
[3] = IDs marked *: additional hits under reaction condition with 1 mM α-KG

| Compound | Assay − Artifact Signal (percent) (JARID1B) [%] | inhibition at 20 µM (JARID1B; [2]) [%] | Assay Signal (percent) (JARID1B) [%] | Artifact Signal (percent) [1] [%] | Validation result of HTS active: effect of the compound in the JARID1B AlphaScreen demethylase assay (JARID1B) | Artifact signal: effect of the compound when it is incubated with bio-H3K4me2 peptide [1] | inhibition at 20 µM (JARID1B; [3]) [%] |
| --- | --- | --- | --- | --- | --- | --- | --- |
| C=CCn1c(S)nnc1CNC(=O)c1cccc(C)c1 [YU149014] | 49.04 | 35.7 | 47.61 | −1.43 |  |  |  |
| Cc1cc(C)nc(Nc2ccc(N(C)C)cc2)n1 [YU146020] | 8.99 | 30.9 | 12.15 | 3.15 |  |  |  |
| CC1(C)C(=O)C2(CCCCC2)C(=O)OC1c1ccc(O)cc1 (stereo not drawn) [YU150447] |  | 34.3 |  |  | 4.56 | 0.80 |  |
| Cn1c(SCC=Cc2ccccc2)nnc1-c1cnccn1 (single isomer, unassigned) [YU151184] |  | 33.8 |  |  | 1.02 | −5.59 |  |
| NCCc1cc(O)c(O)cc1O [YU033940, OXIDOPAMINE HYDROCHLORIDE, reference compound] | 19.88 | 41 | 36.84 | 16.96 |  |  |  |
| Cc1cccc(-n2c(=O)c(O)nc3cc([N+](=O)[O-])ccc32)c1 [YU149941] |  | 51.1 |  |  | −12.32 | −16.01 |  |
| Cc1ccc(NC(=O)C2OCCc3ccccc32)cc1Cl (stereo not drawn) [YU150403] |  | 97.5 |  |  | −3.10 | −6.36 |  |
| CCOC(=O)c1ccc(NC(c2cccnc2)c2ccc3cccnc3c2O)cc1 (stereo not drawn) [YU172168] |  | 37.1 |  |  | 44.99 | 37.50 |  |
| O=C(NCc1ccccc1)c1ccc(N2CCCC2)c([N+](=O)[O-])c1 [YU153074] | 11.37 | 102 | 16.52 | 5.15 |  |  |  |
| Cc1c2c(=O)n(-c3nc4ccccc4s3)[nH]c2cc(=O)n1Cc1ccc(C(=O)O)cc1 [YU172089] | 11.36 | 92.3 | 22.52 | 11.16 |  |  |  |
| c1cncc(-c2nn3c(Cn4cnc5ccccc54)nnc3s2)c1 [YU154091] | 24.37 | 40 | 29.87 | 5.50 |  |  |  |
| O=C(CCCCCCC(=O)N(c1ccccc1)c1ccccc1)N(c1ccccc1)c1ccccc1 [YU105079] |  | 68.9 |  |  | 44.39 | 43.24 |  |
| O=C(O)c1cc2cc(Cc3ccccc3Cl)ccc2oc1=O [YU151859] |  | 84.4 |  |  | 9.33 | 5.15 |  |
| O=C(Nc1cnc(N2CCN(c3ccccc3Cl)CC2)c(C(=O)O)c1)c1ccc(F)cc1 [YU208247] |  | 51.5 |  |  | 7.92 | 0.47 |  |
| Cc1ccc(C)c(CN2CCN(Cc3ccccc3)CC2)c1 [YU105182] |  | 35.3 |  |  | 3.14 | −1.74 |  |
| O=C(O[C@@H]1Cc2c(O)cc(O)cc2O[C@@H]1c1cc(O)c(O)c(O)c1-c1c([C@H]2Oc3cc(O)cc(O)c3C[C@H]2OC(=O)c2cc(O)c(O)c(O)c2)cc(O)c(O)c1O)c1cc(O)c(O)c(O)c1 (stereo in doubt) [YU155084, 2,2-BISEPIGALLO- CATECHIN DIGALLATE, reference compound] |  | 102 |  |  | 98.89 | 91.60 |  |
| Cc1ccc(C)c(NS(=O)(=O)c2ccc3[nH]c(=O)oc3c2)c1 [YU152226] | 11.28 | 60.1 | 5.25 | −6.03 |  |  |  |
| Cn1c(S)nnc1CSCc1ccc(F)cc1 [YU147498] | 23.24 | 31.1 | 19.36 | −3.87 |  |  |  |
| COC(=O)Nc1ccc(S(=O)(=O)N2CCCCCC2)cc1 [YU151614] |  | 85.5 |  |  | −1.67 | −4.92 |  |

| Compound | Assay − Artifact Signal (percent) (JARID1B) [%] | inhibition at 20 µM (JARID1B; [2]) [%] | Assay Signal (percent) (JARID1B) [%] | Artifact Signal (percent) [1] [%] | Validation result of HTS active: effect of the compound in the JARID1B AlphaScreen demethylase assay (JARID1B) | Artifact signal: effect of the compound when it is incubated with bio-H3K4me2 peptide [1] | inhibition at 20 µM (JARID1B; [3]) [%] |
| --- | --- | --- | --- | --- | --- | --- | --- |
| O=C(O[C@@H]1Cc2c(O)cc(O)cc2O[C@@H]1c1cc(O)c(O)c(O)c1)c1cc(O)c(O)c(O)c1 [YU153090, EPIGALLOCATECHIN-3- MONOGALLATE, reference compound] |  |  |  |  | 95.83 | 90.25 |  |
| O=C1c2c(O)cccc2Cc2cccc(O)c21 [YU033694, ANTHRALIN, reference compound] | 13.30 |  | 22.65 | 9.35 |  |  | 51.7 |
| COc1cccc2c1C(=O)c1c(O)c3c(c(O)c1C2=O)C[C@@](O)(C(C)=O)C[C@@H]3O[C@H]1C[C@H](N)[C@H](O)[C@H](C)O1 [YU155488, DAUNORUBICIN, reference compound] | 45.32 |  | 48.63 | 3.31 |  |  |  |
| C#CCCCCCCCCCCCC(O)CC(O)COC(C)=O (stereo not drawn) [YU155369, AVOCADYNE ACETATE, reference compound] | 45.03 | 45.1 | 44.82 | −0.21 |  |  |  |
| O=c1c(O)c(-c2ccc(O)c(O)c2)oc2c(O[C@@H]3O[C@H](CO)[C@@H](O)[C@H](O)[C@H]3O)c(O)cc(O)c12 [YU153353, GOSSYPIN, reference compound] | 37.81 |  | 99.61 | 61.80 |  |  |  |
| Cc1c2c(=O)n(-c3nc4ccccc4s3)[nH]c2cc(=O)n1CCN1CCOCC1 [YU172087] | 21.21 | 56.4 | 14.44 | −6.77 |  |  |  |
| Cl.Cn1cccc1CNCc1ccncc1 [YU145853] | 57.65 | 76.6 | 66.64 | 8.99 |  |  |  |
| NNC(=O)c1ccncc1 [YU033872, ISONIAZID, reference compound] | 51.63 | 54.5 | 45.10 | −6.34 |  |  |  |
| O=C(O)c1ccnc(C(=O)O)c1 [YU221215, 2,4-Pyridinedicarboxylic Acid, reference compound] | 96.69 |  | 99.69 | 3.00 |  |  | 40.8 |
| COc1cccc2c1C(=O)c1c(O)c3c(c(O)c1C2=O)C[C@@](O)(C(=O)CO)C[C@@H]3O[C@H]1C[C@H](N)[C@@H](O)[C@H](C)O1.Cl (stereo in doubt) [YU039604, EPIRUBICIN HYDROCHLORIDE, reference compound] |  | 81.9 |  |  | 10.74 | 3.76 |  |
| OC1CCN(C(=S)NC2CC2)CC1 [YU144896] |  | 90.6 |  |  | −9.38 | −14.49 |  |
| C#CCOc1c(Cl)cc(C(=S)N2CCOCC2)cc1OC [YU153110] | 37.96 | 45.2 | 34.87 | −3.09 |  |  |  |
| COc1ccc(C2CC(c3cccnc3)Nc3nnnn32)cc1 (stereo not drawn) [YU151128] | 8.40 | 59.7 | 6.20 | −2.19 |  |  |  |
| Cc1c(C(=O)O)cccc1-c1ccc(C=C[N+](=O)[O-])o1 (single isomer, unassigned) [YU147801] | 14.43 | 56.9 | 31.41 | 16.98 |  |  |  |
| Fc1cccc(-c2nn3c(-c4ccccc4Cl)nnc3s2)c1 [YU153729] | 14.96 | 33.9 | 11.41 | −3.54 |  |  |  |
| Cc1ccc(S(=O)(=O)C=CC#N)cc1 (single isomer, unassigned) [YU154885, BAY 11-7082, reference compound] | 41.45 | 43.6 | 35.57 | −5.88 |  |  |  |
| Fc1ccccc1-c1nc2ncccc2o1 [YU172071] |  | 37.3 |  |  | 3.80 | −1.99 |  |
| O=C(NCCc1ccc(F)cc1)C(Cl)(Cl)Cl [YU148680] |  | 63.9 |  |  | −2.95 | −10.90 |  |
